This note sets out measurements from patent US12398117B2, “Heteroarylamidopyridinol derivative and pharmaceutical composition comprising same as active ingredient for prevention or treatment of autoimmune disease” (INNOVO THERAPEUTICS INC., priority 2019, dated 2025).

Test [1] relates to adhesion of intestinal epithelial cells (HT-29) and monocytic cells (U937) induced by TNF-α. The test can be described thus: Inhibition of TNF-α-induced adhesion of monocytes and intestinal epithelial cells. The test is classed as cell-based, human. The conditions noted are these: Homo sapiens; for inhibition at 1 µM: test drug 1 μM, TNF-α 10 ng/mL, HT-29/U937, read-out: Inhibitory activity (%). The method, then: HT-29 human colon cancer-derived epithelial cells and U937 human-derived monocytes were cultured in RPMI 1640 medium containing 10% FBS and 1% penicillin/streptomycin (PS) in a 37° C., 5% CO2 incubator. When the cells grew more than 80% of the bottom area of the culture flask, they were passaged at a ratio of 1:3 and used in this experiment. HT-29 cells were cultured in a 24-well plate at the density of 2×10^5 cells/cm^2, and the test drug was pretreated in a medium containing 1% FBS and 1% PS for 1 hour. Thereafter, 10 μg/mL of BCECF-AM was treated thereto and reacted at 37° C. for 30 minutes. U937 cells loaded with BCECF and TNF-α (10 ng/mL) were reacted with HT-29 cells previously treated with the test drug at 37° C. for 3 hours. Upon completion of the reaction, the medium was removed, and the culture flask was washed twice with PBS to remove non-adherent U937 cells. In the next step, the cells were lysed by treating with 0.1% Triton X-100 (0.1 M Tris) and reacted at room temperature for 30 minutes. Then, fluorescence was measured and quantified using a fluostar optima microplate reader (BMG Labtechnologies, Germany) (Carvalho et al., 1996; Thapa et al., 2008).

Test [2] deals with TNBS-induced inflammatory bowel disease rat model. In words: Oral efficacy in TNBS-induced inflammatory bowel disease rat model. The test is classed as in vivo, Sprague Dawley rats. The method, then: Sprague Dawley rats aged 7-8 weeks were purchased from OrientBio (Korea), stabilized with general solid feed for 3 days, and then used in this experiment. Feed and water were freely supplied during the experiment period, and the temperature of the breeding room was maintained at 25±1° C. and the relative humidity at 50±10%. Lighting management was controlled in a 12-hour light-dark cycle by an automatic lighting controller.
After anesthetizing rats that had been fasted for 24 hours with diethyl ether, 0.8 mL of 5% TNBS diluted with 50v/v % ethanol was slowly injected into the lumen of the colon using a 1 mL syringe connected to a polyethylene catheter, and then, the rats were left standing for 60 seconds in an inverted position in order to prevent 5% TNBS from leaking into the anus. For the control group, only vehicle [50v/v % ethanol] was injected in the same manner as in the other groups (Thapa et al., 2008).
In order to investigate the effect of the drug, the drug was administered at a constant time every day for 5 days from the day after the TNBS treatment.
Changes in body weight of each rat were observed from the fasting stage to the TNBS administration and drug administration process using a digital mass meter.
The colon of the rat was extracted, and the tissue 5-6 cm away from the anus was cut into a length of 1 cm, and the weight of the tissue was measured.
The weighed rat tissues were fixed with 4% paraformaldehyde solution, and then transferred to 30% sucrose solution. When the tissues subside, they were taken out and cut into […] thick using a cryomicrotome (Microm HM 450, Thermo Fisher Scientific, Germany) and stored in a cryopreservation solution. After washing the tissue section with KPBS, the tissue section was attached to a slide glass, dried, and then stained with hematoxylin & Eosin and observed under a microscope.

Test [3] has as its system DSS-induced chronic enteritis mouse model. The test can be described thus: Oral efficacy in DSS-induced chronic enteritis mouse model. Particulars: chronic enteritis (DSS-water-DSS, total 35 days), mouse. The test is classed as in vivo, C57BL/6 mice. The method, then:
C57BL/6 mice aged 7-8 weeks were purchased from OrientBio (Korea), stabilized with general solid feed for 7 days, and then used in this experiment. Feed and water were freely supplied during the experiment period, and the temperature of the breeding room was maintained at 25±1° C. and the relative humidity at 50±10%. Lighting management was controlled in a 12-hour light-dark cycle by an automatic lighting controller.
Enteritis was induced in mice by allowing them to freely ingest drinking water containing 2% DSS salt (M.W. 36,000˜50,000, MP Biomedicals, LLC, OH, USA). For the chronic enteritis model, DSS was administered using a schedule of DSS administration for the first 7 days, administration of normal drinking water for 14 days, repeated administration of DSS for 7 days from the 21st day, and administration of normal drinking water for 7 days. The drug was administered once a day, 6 days a week from the first day of DSS treatment (FIG. 2A). […] In order to measure the dose-dependent therapeutic effect of the drug in the acute enteritis model, DSS was administered for 5 days to induce enteritis, and then the drug was administered for 14 days to measure the degree of recovery and treatment of enteritis (FIG. 3A). The drug was administered orally once daily for […] at a fixed time.
Changes in body weight of each mouse were observed during the DSS and drug administration using a digital mass meter.
The colon of the mouse was extracted, and the length and weight from the anus to the cecum were measured.
Tissue staining was performed in the same manner as in the case of hematoxylin/eosin staining of the rat colon tissue, and scoring indexes of mucosal damage and recovery were applied in the same way.

In test [4] the test system is adhesion of intestinal epithelial cells (HT-29) and monocytic cells (U937) induced by IL-6. The test can be described thus: Inhibition of IL-6-induced adhesion of monocytes and intestinal epithelial cells. The test is classed as cell-based, human. Particulars: Homo sapiens, 3 h; test drug 1 μM; IL-6 10 ng/mL; HT-29/U937; read-out: inhibitory activity (%). The method, then:
The inhibitory activity test for intestinal epithelial cell-monocyte adhesion by IL-6 was performed using the same method as in the case of TNF-α. HT-29 cells were cultured in a 24-well plate at the density of 2×10^5 cells/cm^2, and the test drug was pretreated in a medium containing 1% FBS and 1% PS for 1 hour. Thereafter, 10 μg/mL of BCECF-AM was treated thereto and reacted at 37° C. for 30 minutes. U937 cells loaded with BCECF and IL-6 (10 ng/mL) were reacted with HT-29 cells previously treated with the test drug at 37° C. for 3 hours. Upon completion of the reaction, the medium was removed, and the culture flask was washed twice with PBS to remove non-adherent U937 cells. In the next step, the cells were lysed by treating with 0.1% Triton X-100 (0.1 M Tris) and reacted at room temperature for 30 minutes. Then, fluorescence was measured and quantified using a fluostar optima microplate reader (BMG Labtechnologies, Germany).

Setting [5] is: oral 1 mg/kg, 5 days, fixed-dose test (Table 6).
Where [6] appears, read: 10 mg/kg, dose-dependence test (Table 7).

In test [1] (inhibition of adhesion by TNF-α), `Cc1nc(NC(=O)c2sc3cc(F)ccc3c2Cl)c(C)c(C)c1O` [Compound X-24, 3-chloro-6-fluoro-N-(5-hydroxy-3,4,6-trimethylpyridin-2-yl)benzo[b]thiophene-2-carboxamide] displayed an IC50 of 230 nM. For the same compound, the “Body weight recovery rate (%)” value in test [2] (setting [5]) stood at 86.6%; in test [3] (1 mg/kg) it was 22.8%; in test [3] (3 mg/kg), 73.3%. Besides, the “Intestinal weight recovery rate (%)” value is listed as 97.4% in test [2] (setting [5]), 58.1% in test [3] (1 mg/kg) and 98.2% in test [3] (3 mg/kg).

As to `Cc1nc(NC(=O)c2sc3cc(F)ccc3c2Cl)c(C)c(C)c1OCC(=O)Nc1ccccc1` [XI-07, 3-chloro-6-fluoro-N-(3,4,6-trimethyl-5-(2-oxo-2-(phenylamino)ethoxy)pyridin-2-yl)benzo[b]thiophene-2-carboxamide], the inhibition at 1 µM in test [1] worked out at 84.1%. Further, in test [4], the inhibition at 1 µM came out at 72.8%. In test [2] (setting [5]), the “Body weight recovery rate (%)” value amounted to 82.9% and the “Intestinal weight recovery rate (%)” value came to 91.0%.

`Cc1nc(NC(=O)c2cc3cc(Br)ccc3[nH]2)c(C)c(C)c1O` [Compound X-07, 5-bromo-N-(5-hydroxy-3,4,6-trimethylpyridin-2-yl)-1H-indole-2-carboxamide]: the inhibition at 1 µM in test [1] worked out at 88.9%. Besides, the inhibition at 1 µM in test [4] came to 80.3%. Also, in test [2] (setting [5]), the “Body weight recovery rate (%)” value stood at 72.9% and the “Intestinal weight recovery rate (%)” value is on record as 94.9%.

On to `COc1cccc2cc(C(=O)Nc3nc(C)c(O)c(C)c3C)oc12` [Compound X-18, N-(5-hydroxy-3,4,6-trimethylpyridin-2-yl)-7-methoxybenzofuran-2-carboxamide], for which the inhibition at 1 µM in test [1] is not below 50%; in test [4] it was 48.8%.

As for `Cc1nc(NC(=O)c2sc3cc(F)ccc3c2Cl)c(C)c(C)c1OC(=O)c1ccccc1` [XI-08, 6-(3-chloro-6-fluorobenzo[b]thiophene-2-carboxamido)-2,4,5-trimethylpyridin-3-yl benzoate], the inhibition at 1 µM was determined as 7.7% in test [1] and 6.8% in test [4].

With `Cc1nc(NC(=O)c2oc3ccccc3c2C)c(C)c(C)c1O` [Compound X-19, N-(5-hydroxy-3,4,6-trimethylpyridin-2-yl)-3-methylbenzofuran-2-carboxamide], the inhibition at 1 µM in test [1] came out at 25.1%; in test [4] it was 18.7%.

Regarding `Cc1nc(NC(=O)c2cc3ccccc3n2C)c(C)c(C)c1O` [Compound X-02, N-(5-hydroxy-3,4,6-trimethylpyridin-2-yl)-1-methyl-1H-indole-2-carboxamide], the results for the inhibition at 1 µM in test [1] and in test [4] were 29.1% and 21.1%, respectively.

On to `Cc1nc(NC(=O)c2cc3cccc(Br)c3[nH]2)c(C)c(C)c1O` [Compound X-03, 7-bromo-N-(5-hydroxy-3,4,6-trimethylpyridin-2-yl)-1H-indole-2-carboxamide], for which the inhibition at 1 µM in test [1] worked out at 14.5%; in test [4] it was 5%.

`Cc1nc(NC(=O)c2sc3cc(F)ccc3c2Cl)c(C)c(C)c1OCC(=O)NC1CCCCC1` [XI-05, 3-chloro-N-(5-(2-(cyclohexylamino)-2-oxoethoxy)-3,4,6-trimethylpyridin-2-yl)-6-fluorobenzo[b]thiophene-2-carboxamide]: the values for the inhibition at 1 µM in test [1] and in test [4] were 25.5% and 14.5%, respectively.

With `Cc1nc(NC(=O)c2cc3ccccc3s2)c(C)c(C)c1O` [Compound X-20, N-(5-hydroxy-3,4,6-trimethylpyridin-2-yl)benzo[b]thiophene-2-carboxamide], the inhibition at 1 µM worked out at 16.5% in test [1] and 27% in test [4].

Regarding `Cc1ccc2c(Cl)c(C(=O)Nc3nc(C)c(O)c(C)c3C)sc2c1` [Compound X-23, 3-chloro-N-(5-hydroxy-3,4,6-trimethylpyridin-2-yl)-6-methylbenzo[b]thiophene-2-carboxamide], the inhibition at 1 µM was determined as 9.1% in test [1] and 8.7% in test [4].

`Cc1nc(NC(=O)c2cc3ccc(Cl)cc3[nH]2)c(C)c(C)c1O` [Compound X-04, 6-chloro-N-(5-hydroxy-3,4,6-trimethylpyridin-2-yl)-1H-indole-2-carboxamide]: the inhibition at 1 µM in test [1] amounted to 30.3%; in test [4], 25.1%.

As to `COc1ccc2[nH]c(C(=O)Nc3nc(C)c(O)c(C)c3C)cc2c1` [Compound X-13, N-(5-hydroxy-3,4,6-trimethylpyridin-2-yl)-5-methoxy-1H-indole-2-carboxamide], the values for the inhibition at 1 µM in test [1] and in test [4] were 36.7% and 23.4%, respectively.

Take `COc1c(C)nc(N(C)C(=O)c2sc3cc(F)ccc3c2Cl)c(C)c1C` [XI-02, 3-chloro-6-fluoro-N-(5-methoxy-3,4,6-trimethylpyridin-2-yl)-N-methylbenzo[b]thiophene-2-carboxamide]: the figures for the inhibition at 1 µM in test [1] and in test [4] were 18.5% and 10.9%, respectively.

Consider `C[C@]12C=CC(=O)C=C1CC[C@H]1[C@@H]3C[C@@H](O)[C@](O)(C(=O)CO)[C@@]3(C)C[C@H](O)[C@@]12F` [Triamcinolone, reference compound], for which, in test [2] (setting [6]), the “Body weight recovery rate (%)” value turned out to be 70.0% and the “Intestinal weight recovery rate (%)” value is 84.5%.

For the compound `Cc1nc(NC(=O)c2sc3cc(F)ccc3c2Cl)c(C)c(C)c1OC(=O)N1CCOCC1` [XI-17, 6-(3-chloro-6-fluorobenzo[b]thiophene-2-carboxamido)-2,4,5-trimethylpyridin-3-yl morpholine-4-carboxylate], in test [1], the inhibition at 1 µM was not below 50%. In test [4], the inhibition at 1 µM was 59.6%. In addition, in test [2] (setting [5]), the “Body weight recovery rate (%)” value was determined as 60.2% and the “Intestinal weight recovery rate (%)” value is listed as 79.8%.
